Results reported in patent publication US20250135028A1, “TUNABLE POLYMERIC NANOPARTICLES FOR TARGETED AND SUSTAINED DELIVERY OF GLYCOPEPTIDE ANTIBIOTICS” (Insmed Incorporated, priority 2021, published 2025).

What was measured:
[1] = Drug loading and encapsulation efficiency of drug loaded PNPs comprising pGlu(0.6C10)-PEG (HPLC); type: physicochemical; conditions: 5 mg drug
From the text: To assess the ability of pGlu(0.6C10)-PEG to load positively charged antibiotics in the form of PNPs, we selected vancomycin and RV94 as the antibiotic drug payload in a first study (study 1) (Table 5), and additionally included oritavancin and RV40 as the antibiotic drug payload in a second study (study 2) (Table 6). The polymers we used for loading and encapsulating the antibiotics were PLA-PEG (A) (Nanosoft Polymers, SKU: 2693), pGlu-PEG (B) (Nanosoft Polymers, SKU: 2917), and pGlu(0.6C10)-PEG (C) (FIG. 10).
We prepared the drug loaded PNPs by using 20 mg of polymers and 5 mg of drug (FIG. 10). Specifically, polymers (20 mg) and drug (5 mg) were dissolve in 1 ml organic solvent mixture (DMSO: acetonitrile=1:1). The solution was injected into 20 ml deionized water stirred with a magnetic stirring bar. The nanoparticles were washed using Amicon filter (100k cut-off) twice and resuspended in deionized water. Drug loading in nanoparticle formulation was determined by HPLC with a WATERS™ T3 column. Acetonitrile/water was used as the mobile phase, and the wavelength of the UV detector was set at 281 nm.
Drug loading is equal to mass of drug (mg) after wash/(mass of drug (mg) after wash+mass of polymer input (i.e., 20 mg))*100%.
EE is equal to mass of drug (mg) after wash/mass of drug input (i.e., 5 mg)*100%.

[2] = Pharmacokinetic study of oritavancin-loaded PNPs in rat osteomyelitis model (plasma and tibia, LC-MS/MS); type: in vivo; conditions: osteomyelitis rats, 6 mg/kg intravenous
From the text: A rat model of bacterial osteomyelitis of the tibia was generated via intraosseous injection of MRSA ATCC 43300 at a target challenge dose of 7 log10 CFU of the bacteria per rat. Briefly, rats were anaesthetized by isoflurane and the infection was initiated via injection of the bacteria through the upper condyle of the right tibia into the cancellous bone marrow of a rat. The inoculation was made on the anterior surface of the tibia. The area was located by running a ½ inch 27-gauge needle against the skin, along the anterior crest of the tibia. The needle slipped over the tip of the tuberosity, which was located between the medial and lateral condyles. A rough depression could be felt with the tip of the needle. The patella tendon (silver in color) connected at this point. Once identified, the needle was pushed into the metaphysis using slight pressure and rotating motion. The needle was removed and replaced with a new ½ inch 27 gauge needle, and 30 μL of bacteria was inoculated into the bone marrow cavity. The needle was removed and the animal was allowed to recover from anesthesia.
Three weeks (21 days) after the initiation of the bacterial infection, the osteomyelitis rats were divided into three treatment groups, with five rats in each group. […] The concentrations of oritavancin in the plasma and tibia samples were quantified using LC-MS/MS.

[3] = Drug loading and encapsulation efficiency of drug loaded PNPs comprising pGlu(0.6C10) (HPLC); type: physicochemical; conditions: 2.5 mg drug
From the text: To assess the ability of pGlu(0.6C10) to load positively charged antibiotics in the form of PNPs, we selected vancomycin, oritavancin, RV40 and RV94 as the drug payload. Vancomycin was chosen as a non-lipoglycopeptide control and the other three payloads were lipoglycopeptides. The polymers we used for loading and encapsulating the antibiotics were PLA(10K)-PEG(2K) (A) obtained from Nanosoft Polymers (Winston-Salem, NC, USA; SKU: 2693), pGlu (D) also obtained from Nanosoft Polymers (SKU: 10069), and pGlu(0.6C10) (E) (FIG. 4).
We prepared the drug loaded PNPs by using 10 mg of polymers and 2.5 mg of drug (FIG. 4). Specifically, polymers (10 mg) and drug (2.5 mg) were dissolved in 1.2 ml organic solvent mixture (DMSO: acetonitrile=0.5:0.7). The solution was injected into 10 ml deionized water stirred with a magnetic stirring bar. 1.1 ml 10×PBS solution was added to suspend nanoparticles in 1×PBS solution. The nanoparticles were washed using Amicon filter (100k cut-off) twice and resuspended in PBS. Drug loading in nanoparticle formulation was determined by HPLC with a WATERS™ T3 column. Acetonitrile/water was used as the mobile phase, and the wavelength of the UV detector was set at 281 nm.
EE is equal to mass of drug (mg) after wash/mass of drug input (i.e., 2.5 mg) *100%. With EE calculated as such, an EE of over 100% may be obtained on certain occasions due to standard error within the analytical measurement and represents complete encapsulation (i.e., 100% EE).

[4] = study 2, PLA-PEG (A) 10 mg + pGlu(0.6C10)-PEG (C) 10 mg
[5] = study 2, PLA-PEG (A) 10 mg + pGlu-PEG (B) 10 mg
[6] = PNP with PLA-PEG (A) 5 mg + pGlu (D) 5 mg
[7] = PNP with PLA-PEG (A) 5 mg + pGlu(0.6C10) (E) 5 mg
[8] = PNP with PLA-PEG (A) as only polymer, 10 mg polymer
[9] = drug payload only, no polymer (N/A)
[10] = study 1, PLA-PEG (A) 10 mg + pGlu(0.6C10)-PEG (C) 10 mg
[11] = study 1, PLA-PEG (A) 10 mg + pGlu-PEG (B) 10 mg
[12] = study 1, PLA-PEG (A) 20 mg only

SMILES	Drug loading [1, 4]	Encapsulation efficiency (EE) [1, 4]	Drug loading [1, 5]	Encapsulation efficiency (EE) [1, 5]	Drug loading [3, 6]	Encapsulation efficiency (EE) [3, 6]	Drug loading [3, 7]	Encapsulation efficiency (EE) [3, 7]	Drug loading [3, 8]	Encapsulation efficiency (EE) [3, 8]	Drug loading [3, 9]	Encapsulation efficiency (EE) [3, 9]	Drug loading [1, 10]	Encapsulation efficiency (EE) [1, 10]	Drug loading [1, 11]	Encapsulation efficiency (EE) [1, 11]	Drug loading [1, 12]	Encapsulation efficiency (EE) [1, 12]	other results
CN[C@H](CC(C)C)C(=O)N[C@H]1C(=O)N[C@@H](CC(N)=O)C(=O)N[C@H]2C(=O)N[C@H]3C(=O)N[C@H](C(=O)N[C@H](C(=O)O)c4cc(O)cc(O)c4-c4cc3ccc4O)[C@H](O[C@H]3C[C@](C)(N)[C@@H](O)[C@H](C)O3)c3ccc(c(Cl)c3)Oc3cc2cc(c3O[C@@H]2O[C@H](CO)[C@@H](O)[C@H](O)[C@H]2O[C@H]2C[C@](C)(NCc3ccc(-c4ccc(Cl)cc4)cc3)[C@@H](O)[C@H](C)O2)Oc2ccc(cc2Cl)[C@H]1O [Ori, oritavancin]	13.4%	68.1%	10.6%	41.0%	8.7%	39.3%	12.3%	60.6%	2.3%	9.8%	0.0%	0.0%	–	–	–	–	–	–	Accumulation of oritavancin in infected tibia compared to uninfected tibia ([2]; 24 h post-injection): preferential accumulation of oritavancin in the infected tibia; Plasma concentrations of oritavancin ([2]; up to 4 hours post-injection): comparable and lower plasma concentrations of oritavancin; Encapsulation efficiency (EE) ([3]; PNP with PLA-PEG (A) 5 mg + pGlu (D) 5 mg, listed as oritavancin): 39.3%; Encapsulation efficiency (EE) ([3]; PNP with PLA-PEG (A) 5 mg + pGlu(0.6C10) (E) 5 mg, listed as oritavancin): 60.6%; Encapsulation efficiency (EE) ([3]; PNP with PLA-PEG (A) as only polymer, 10 mg polymer, listed as oritavancin): 9.8%
CCCCCCCCCCNCCNC1(C)CC(OC2C(Oc3c4cc5cc3Oc3ccc(cc3Cl)C(O)C(NC(=O)C(CC(C)C)NC)C(=O)NC(CC(N)=O)C(=O)NC5C(=O)NC3C(=O)NC(C(=O)CC(C(=O)O)c5cc(O)cc(O)c5-c5cc3ccc5O)C(O)c3ccc(c(Cl)c3)O4)OC(CO)C(O)C2O)OC(C)C1O (stereo not shown) [RV40]	6.4%	45.5%	6.7%	33.2%	3.1%	15.0%	15.0%	100.7%	1.9%	7.0%	0.0%	0.0%	–	–	–	–	–	–	–
CCCCCCCCCCNC(=O)CNC1(C)CC(OC2C(Oc3c4cc5cc3Oc3ccc(cc3Cl)C(O)C3NC(=O)C(NC(=O)C5NC(=O)C(CC(N)=O)NC(=O)C(NC(=O)C(CC(C)C)NC)C(O)c5ccc(c(Cl)c5)O4)c4ccc(O)c(c4)-c4c(O)cc(O)cc4C(C(=O)O)NC3=O)OC(CO)C(O)C2O)OC(C)C1O (stereo not shown) [RV94]	17.5%	92.7%	13.2%	59.8%	3.5%	12.9%	20.9%	107.2%	2.8%	10.4%	1.3%	4.2%	16.7%	88.4%	13.6%	70.1%	0.9%	4.0%	–
CN[C@H](CC(C)C)C(=O)N[C@H]1C(=O)N[C@@H](CC(N)=O)C(=O)N[C@H]2C(=O)N[C@H]3C(=O)N[C@H](C(=O)N[C@H](C(=O)O)c4cc(O)cc(O)c4-c4cc3ccc4O)[C@H](O)c3ccc(c(Cl)c3)Oc3cc2cc(c3O[C@@H]2O[C@H](CO)[C@@H](O)[C@H](O)[C@H]2O[C@H]2C[C@](C)(N)[C@H](O)[C@H](C)O2)Oc2ccc(cc2Cl)[C@H]1O [Vac, vancomycin]	2.4%	9.8%	0.0%	0.2%	0.0%	0.1%	0.1%	0.5%	0.0%	0.2%	0.0%	0.0%	2.7%	18.6%	0.0%	0.0%	0.0%	0.0%	Encapsulation efficiency (EE) ([1]; study 1, PLA-PEG (A) 10 mg + pGlu-PEG (B) 10 mg, listed as vancomycin): 0.0%; Encapsulation efficiency (EE) ([1]; study 1, PLA-PEG (A) 20 mg only, listed as vancomycin): 0.0%; Encapsulation efficiency (EE) ([3]; PNP with PLA-PEG (A) 5 mg + pGlu (D) 5 mg, listed as vancomycin): 0.1%; Encapsulation efficiency (EE) ([3]; PNP with PLA-PEG (A) 5 mg + pGlu(0.6C10) (E) 5 mg, listed as vancomycin): 0.5%; Encapsulation efficiency (EE) ([3]; PNP with PLA-PEG (A) as only polymer, 10 mg polymer, listed as vancomycin): 0.2%
